Source: US20090047221A1 (NIPRI LIMITED, priority 2004, published 2009)
Where two headings read alike, the source gives them in different places.

Key:
Experiment in all cases: MTT assay (anti-proliferative activity)
Type in all cases: cell-based
[1] = system: MDA-MB-468; settings: read-out: IC 50 MDA-MB-468
Procedure: (§1) The MTT assay was used initially to determine the anti-proliferative activity of the test compounds. In the MTT assay a yellow thiazolyl blue tetrazolium bromide salt (MTT) is reduced, in metabolically active cells, to form insoluble purple formazan crystals which are solubilised by the addition of dimethyl sulphoxide (DMSO).
(§2) Wells containing medium only were used as blanks. Following the attachment period, cells were treated with appropriate drug concentrations (20 μl added per well). 40 mg/ml stock drug solutions, in DMSO, were stored at −20° C. and on the day of drug treatment working solutions of 4 mg/ml were prepared in medium which was further diluted to achieve final drug dilution volumes of 20 μl. Initial screening was determined over a concentration range of 1-200 μg/ml. […] Cells were exposed to drug for 96 h continual exposure (37° C., 5% CO2). Following the 96 h incubation, 50 μl MTT solution (1 g MTT/500 ml PBS) was added per well and the plates were further incubated for 4 h (37° C., 5% CO2). After incubation the MTT and medium was removed from the wells and 100 μl DMSO added per well. Plates were agitated on an orbital mixer platform (Stuart Scientific) for 10 minutes. Absorbance was measured at 570 nm on a Biotrak II (Amersham Bioscience) plate reader. IC50 values were calculated comparing control and drug treated cells.

[2] = system: MalMe3M; settings: 96 h continual exposure, read-out: IC 50 MalMe3M
Procedure: as §1, §2

[3] = system: SkMel28; settings: read-out: IC 50 SkMel28
Procedure: as §1, §2

[4] = system: MCF-7; settings: read-out: IC 50 MCF-7
Procedure: as §1, §2

[5] = Homo sapiens, MCF7, 96 h continual exposure
[6] = Homo sapiens, MDA-MB-468, 96 h continual exposure
[7] = Homo sapiens, SK-MEL-28, 96 h continual exposure

| SMILES | IC50 ([1]; 96 h continual exposure) [µM] | IC50 ([4]; 96 h continual exposure) [µM] | IC50 [4, 5] [µM] | IC50 [1, 6] [µM] | IC50 [2] [µM] | IC50 ([3]; 96 h continual exposure) [µM] | IC50 ([2]; Homo sapiens, Malme-3M) [µM] | IC50 [3, 7] [µM] |
| --- | --- | --- | --- | --- | --- | --- | --- | --- |
| CC1Cc2ccc(C(=O)NCCC(=O)O)c(O)c2C(=O)O1 (racemic) | 222 | 136 | – | – | 290 | > 681 | – | – |
| CCCCC/C=C\C/C=C\CCCCCCCC(=O)Oc1c(OC)c(OC)cc2c1C(=O)OC(C)C2 (racemic) [ALM-3, Racemic Kigelin Linoleyl Ester] | 99.9 | 150 | – | – | > 399 | > 399 | – | – |
| COc1cc(O)c2c(c1)CC(C)OC2=O (racemic) [ALM-8, 8-Hydroxy-6-methoxy-3-methylisochroman-1-one] | – | – | 428 | 428 | – | – | 663 | 725 |
| CC/C=C\C/C=C\C/C=C\CCCCCCCC(=O)Oc1cccc2c1C(=O)OC(C)C2 (racemic) [ALM-19, Racemic Mellein α-Linolenyl Ester] | > 455 | > 455 | – | – | > 455 | > 455 | – | – |
| CC1Cc2c(F)ccc(O)c2C(=O)O1 (racemic) [ALM-23, Racemic Para-Fluoromellein] | 469 | > 1020 | – | – | > 1020 | > 1020 | – | – |
| CC1Cc2c(Br)ccc(O)c2C(=O)O1 (racemic) [ALM-24] | – | – | 261 | 171 | – | – | 249 | 296 |
| CC1Cc2c(I)cc(I)c(O)c2C(=O)O1 (racemic) [ALM-27, Racemic 2,4-di-iodomellein] | – | – | 116 | 48.8 | – | – | 109 | 76.8 |
| CC1Cc2c([N+](=O)[O-])cc([N+](=O)[O-])c(O)c2C(=O)O1 (racemic) [ALM-30, Racemic 2,4-dinitromellein] | – | – | 130 | 138 | – | – | 142 | 179 |
| CC1Cc2ccc(C(=O)Oc3ccccc3)c(O)c2C(=O)O1 (racemic) [ALM-37, Phenyl Ester] | 181 | 285 | – | – | 308 | 332 | – | – |
| CC1Cc2ccc(C(=O)OC3CCCCC3)c(O)c2C(=O)O1 (racemic) [ALM-38, Cyclohexyl Ester] | 131 | 98.6 | – | – | 131 | 131 | – | – |
| CC1Cc2ccc(C(=O)OC(C)(C)C)c(O)c2C(=O)O1 (racemic) [ALM-39, Tert-Butyl Ester] | 305 | 392 | – | – | 345 | 359 | – | – |
| CCCCCCOC(=O)c1ccc2c(c1O)C(=O)OC(C)C2 (racemic) [ALM-40, Hexyl Ester] | 42.4 | 65.3 | – | – | 114 | 163 | – | – |
| CCCCCCCCCCCCOC(=O)c1ccc2c(c1O)C(=O)OC(C)C2 (racemic) [ALM-41, Dodecyl Ester] | 166 | 192 | – | – | 333 | 256 | – | – |
| CC1Cc2ccc(C(=O)n3ccnc3)c(O)c2C(=O)O1 (racemic) [ALM-46, CDI derivative] | 73.4 | > 734 | – | – | > 734 | > 734 | – | – |
| CC1Cc2ccc(C(=O)N3CCCC3)c(O)c2C(=O)O1 (racemic) [ALM-47, Pyrrolidine Amide] | 490 | > 726 | – | – | > 726 | > 726 | – | – |
| CNC(=O)c1ccc2c(c1O)C(=O)OC(C)C2 (racemic) [ALM-48, Methyl Amide] | 289 | 268 | – | – | 191 | 502 | – | – |

The next lines start with results.

| IC50 ([1]; 96 h continual exposure) [µM] | IC50 ([4]; 96 h continual exposure) [µM] | IC50 [4, 5] [µM] | IC50 [1, 6] [µM] | SMILES | IC50 [2] [µM] | IC50 ([3]; 96 h continual exposure) [µM] | IC50 ([2]; Homo sapiens, Malme-3M) [µM] | IC50 [3, 7] [µM] |
| --- | --- | --- | --- | --- | --- | --- | --- | --- |
| 113 | – | – | – | CC(C)CC(NC(=O)c1ccc2c(c1O)C(=O)OC(C)C2)C(=O)O (mixture of isomers) [ALM-56, Leucine Amide] | 486 | > 596 | – | – |
| 118 | 197 | – | – | CC1Cc2ccc(C(=O)NC(C(=O)O)c3ccccc3)c(O)c2C(=O)O1 (mixture of isomers) [ALM-64] | > 562 | > 562 | – | – |
| > 570 | > 570 | – | – | CC1Cc2ccc(C(=O)NC(CCCCN)C(=O)O)c(O)c2C(=O)O1 (mixture of isomers) [ALM-67] | > 570 | > 570 | – | – |
| – | – | 630 | 306 | COc1cc2c(c(O)c1OC)C(=O)OC(C)C2 (racemic) [ALM-1, Racemic (±)—Kigelin] | – | – | 714 | 718 |
| 90.2 | 60.2 | – | – | CC/C=C\C/C=C\C/C=C\CCCCCCCC(=O)Oc1c(OC)c(OC)cc2c1C(=O)OC(C)C2 (racemic) [ALM-4, Racemic Kigelin α-Linolenyl Ester] | 321 | > 401 | – | – |
| 50.1 | 20 | – | – | CCCCC/C=C\C/C=C\C/C=C\CCCCC(=O)Oc1c(OC)c(OC)cc2c1C(=O)OC(C)C2 (racemic) [ALM-5, Racemic Kigelin γ-Linolenyl Ester] | 150 | > 401 | – | – |
| – | – | 432 | 486 | COc1cc2c(c(OC)c1)C(=O)OC(C)C2 (racemic) [ALM-7, 6,8-Dimethoxy-3-methyl-isochroman-1-one] | – | – | 626 | > 900 |
| – | – | > 1040 | 583 | COc1cccc2c1C(=O)OC(C)C2 (racemic) [ALM-12, Racemic Mellein Methyl Ether] | – | – | > 1040 | > 1040 |
| 345 | 613 | – | – | CC(=O)Oc1cccc2c1C(=O)OC(C)C2 (racemic) [ALM-15, Acetyl rac-Mellein] | 613 | 622 | – | – |
| 240 | 296 | – | – | CCOC(=O)Oc1cccc2c1C(=O)OC(C)C2 (racemic) [ALM-16, Racemic Mellein Ethyl Carbonate] | 456 | 360 | – | – |
| > 453 | > 453 | – | – | CCCCC/C=C\C/C=C\CCCCCCCC(=O)Oc1cccc2c1C(=O)OC(C)C2 (racemic) [ALM-18, Racemic Mellein Linoleyl Ester] | > 453 | > 453 | – | – |
| > 455 | 342 | – | – | CCCCC/C=C\C/C=C\C/C=C\CCCCC(=O)Oc1cccc2c1C(=O)OC(C)C2 (racemic) [ALM-20, Racemic Mellein γ-Linolenyl Ester] | > 455 | > 455 | – | – |
| – | – | 329 | 263 | CC1Cc2c(I)ccc(O)c2C(=O)O1 (racemic) [ALM-26, Racemic Para-Iodomellein] | – | – | 168 | – |
| – | – | 594 | 211 | COc1ccc(I)c2c1C(=O)OC(C)C2 (racemic) [ALM-28] | – | – | 484 | 283 |
| – | – | 341 | 341 | CC(=O)c1ccc2c(c1O)C(=O)OC(C)C2 (racemic) [ALM-29, Racemic ortho-acetylmellein] | – | – | 341 | 363 |
| – | – | > 900 | 585 | CC1Cc2ccc(C(=O)O)c(O)c2C(=O)O1 (racemic) [ALM-33, 8-Hydroxy-3-methyl-1-oxo-isochroman-7-carboxylic acid] | – | – | > 900 | > 900 |
| – | – | > 847 | 360 | COC(=O)c1ccc2c(c1O)C(=O)OC(C)C2 (racemic) [ALM-34, 8-Hydroxy-3-methyl-1-oxo-isochroman-7-carboxylic acid methyl ester] | – | – | > 847 | > 847 |
| 99.3 | – | – | – | CC1Cc2ccc(C(=O)OCc3ccccc3)c(O)c2C(=O)O1 (racemic) [ALM-36, Benzyl Ester] | 106 | 176 | – | – |
| 317 | > 423 | – | – | CCCCCCCC/C=C\CCCCCCCCOC(=O)c1ccc2c(c1O)C(=O)OC(C)C2 (racemic) [ALM-42, Oleyl Ester] | > 423 | > 423 | – | – |
| 41.8 | 86.7 | – | – | CC1Cc2ccc(C(=O)NCc3ccccc3)c(O)c2C(=O)O1 (racemic) [ALM-44, Benzyl Amide] | 128 | 270 | – | – |
| 59.5 | 90.8 | – | – | CCCCCCN(C)C(=O)c1ccc2c(c1O)C(=O)OC(C)C2 (racemic) [ALM-50, N-Methyl-N-Hexyl Amide] | 110 | 141 | – | – |
| – | – | 596 | 317 | C[C@H]1Cc2cccc(O)c2C(=O)O1 [ALM-10, (3S)-mellein] | – | – | 360 | 961 |
| – | – | 961 | 428 | C[C@@H]1Cc2cccc(O)c2C(=O)O1 [ALM-11, (3R)-mellein] | – | – | > 960 | 961 |
| – | – | > 1040 | 1040 | COc1cccc2c1C(=O)O[C@@H](C)C2 [ALM-13, (3S)-methoxy mellein] | – | – | 822 | > 1040 |
| – | – | 1040 | > 1040 | COc1cccc2c1C(=O)O[C@H](C)C2 [ALM-14, (3R)-methoxy mellein] | – | – | > 1040 | > 1040 |
